Data on ten compounds can be found in patent US10344060B2 (priority 2013, dated 2019).

Experiment [1] addresses hNav1.4 (Homo sapiens, UniProt P35499). The experiment is described as follows: cell-based. The experiment is classed as cell-based. The following applies: Table 12; ratio of PX tonic IC50 values.
Experiment [2] deals with hNav1.5 (Homo sapiens, UniProt Q14524). Kind of experiment: cell-based. Conditions: Table 12; ratio of PX tonic IC50 values.
Chain of hNav1.5 (Q14524 whole entry): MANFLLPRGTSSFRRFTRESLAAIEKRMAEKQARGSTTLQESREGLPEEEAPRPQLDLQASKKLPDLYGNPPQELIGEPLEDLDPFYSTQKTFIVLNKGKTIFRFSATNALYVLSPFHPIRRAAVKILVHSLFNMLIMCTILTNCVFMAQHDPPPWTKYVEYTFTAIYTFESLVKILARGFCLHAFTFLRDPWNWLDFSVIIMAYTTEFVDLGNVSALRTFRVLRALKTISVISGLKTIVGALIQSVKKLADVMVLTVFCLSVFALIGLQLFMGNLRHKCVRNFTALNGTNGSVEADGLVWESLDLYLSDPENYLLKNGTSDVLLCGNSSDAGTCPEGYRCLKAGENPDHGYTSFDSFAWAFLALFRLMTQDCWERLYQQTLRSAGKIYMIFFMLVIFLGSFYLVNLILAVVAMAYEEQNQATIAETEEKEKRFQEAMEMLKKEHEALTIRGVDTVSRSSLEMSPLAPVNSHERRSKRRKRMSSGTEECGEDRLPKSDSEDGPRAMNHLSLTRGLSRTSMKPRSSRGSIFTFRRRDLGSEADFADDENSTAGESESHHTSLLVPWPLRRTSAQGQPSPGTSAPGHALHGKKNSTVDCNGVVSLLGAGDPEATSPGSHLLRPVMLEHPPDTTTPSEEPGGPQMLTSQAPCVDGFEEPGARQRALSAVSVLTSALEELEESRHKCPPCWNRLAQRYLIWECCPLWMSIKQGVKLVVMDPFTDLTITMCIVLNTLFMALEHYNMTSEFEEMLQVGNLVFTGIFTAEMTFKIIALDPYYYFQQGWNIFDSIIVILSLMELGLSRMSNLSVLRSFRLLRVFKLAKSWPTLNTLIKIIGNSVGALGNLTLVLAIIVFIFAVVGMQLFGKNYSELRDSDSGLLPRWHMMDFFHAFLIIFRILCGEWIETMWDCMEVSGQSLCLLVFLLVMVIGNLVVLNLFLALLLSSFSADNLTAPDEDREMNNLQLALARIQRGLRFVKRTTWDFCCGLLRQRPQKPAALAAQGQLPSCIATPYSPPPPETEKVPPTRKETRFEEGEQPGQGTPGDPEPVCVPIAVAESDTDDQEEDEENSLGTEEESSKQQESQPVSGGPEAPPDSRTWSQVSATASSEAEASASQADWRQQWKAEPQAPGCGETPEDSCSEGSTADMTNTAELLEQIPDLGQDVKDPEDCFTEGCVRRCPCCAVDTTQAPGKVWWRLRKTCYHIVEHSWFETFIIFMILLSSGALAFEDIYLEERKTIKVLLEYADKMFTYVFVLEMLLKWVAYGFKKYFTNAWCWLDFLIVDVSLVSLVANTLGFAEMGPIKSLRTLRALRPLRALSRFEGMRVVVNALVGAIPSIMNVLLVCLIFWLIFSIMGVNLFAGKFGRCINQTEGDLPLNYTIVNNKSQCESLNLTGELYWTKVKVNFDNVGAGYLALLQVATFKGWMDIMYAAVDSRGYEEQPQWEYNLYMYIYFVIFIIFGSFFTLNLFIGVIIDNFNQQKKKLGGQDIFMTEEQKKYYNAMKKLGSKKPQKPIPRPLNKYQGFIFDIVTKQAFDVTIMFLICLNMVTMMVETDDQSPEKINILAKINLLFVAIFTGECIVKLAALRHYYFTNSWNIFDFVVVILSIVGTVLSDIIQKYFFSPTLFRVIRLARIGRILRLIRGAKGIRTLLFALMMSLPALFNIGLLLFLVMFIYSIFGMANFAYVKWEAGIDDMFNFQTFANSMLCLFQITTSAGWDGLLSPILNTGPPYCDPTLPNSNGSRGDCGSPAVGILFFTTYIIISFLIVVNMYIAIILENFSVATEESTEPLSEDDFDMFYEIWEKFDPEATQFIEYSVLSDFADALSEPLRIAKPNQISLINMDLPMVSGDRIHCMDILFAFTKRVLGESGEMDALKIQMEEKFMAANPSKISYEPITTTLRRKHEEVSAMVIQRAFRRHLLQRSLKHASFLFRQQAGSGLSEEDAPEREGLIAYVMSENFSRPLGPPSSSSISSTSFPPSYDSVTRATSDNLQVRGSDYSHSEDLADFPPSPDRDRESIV

Chain of hNav1.4 (P35499 whole entry): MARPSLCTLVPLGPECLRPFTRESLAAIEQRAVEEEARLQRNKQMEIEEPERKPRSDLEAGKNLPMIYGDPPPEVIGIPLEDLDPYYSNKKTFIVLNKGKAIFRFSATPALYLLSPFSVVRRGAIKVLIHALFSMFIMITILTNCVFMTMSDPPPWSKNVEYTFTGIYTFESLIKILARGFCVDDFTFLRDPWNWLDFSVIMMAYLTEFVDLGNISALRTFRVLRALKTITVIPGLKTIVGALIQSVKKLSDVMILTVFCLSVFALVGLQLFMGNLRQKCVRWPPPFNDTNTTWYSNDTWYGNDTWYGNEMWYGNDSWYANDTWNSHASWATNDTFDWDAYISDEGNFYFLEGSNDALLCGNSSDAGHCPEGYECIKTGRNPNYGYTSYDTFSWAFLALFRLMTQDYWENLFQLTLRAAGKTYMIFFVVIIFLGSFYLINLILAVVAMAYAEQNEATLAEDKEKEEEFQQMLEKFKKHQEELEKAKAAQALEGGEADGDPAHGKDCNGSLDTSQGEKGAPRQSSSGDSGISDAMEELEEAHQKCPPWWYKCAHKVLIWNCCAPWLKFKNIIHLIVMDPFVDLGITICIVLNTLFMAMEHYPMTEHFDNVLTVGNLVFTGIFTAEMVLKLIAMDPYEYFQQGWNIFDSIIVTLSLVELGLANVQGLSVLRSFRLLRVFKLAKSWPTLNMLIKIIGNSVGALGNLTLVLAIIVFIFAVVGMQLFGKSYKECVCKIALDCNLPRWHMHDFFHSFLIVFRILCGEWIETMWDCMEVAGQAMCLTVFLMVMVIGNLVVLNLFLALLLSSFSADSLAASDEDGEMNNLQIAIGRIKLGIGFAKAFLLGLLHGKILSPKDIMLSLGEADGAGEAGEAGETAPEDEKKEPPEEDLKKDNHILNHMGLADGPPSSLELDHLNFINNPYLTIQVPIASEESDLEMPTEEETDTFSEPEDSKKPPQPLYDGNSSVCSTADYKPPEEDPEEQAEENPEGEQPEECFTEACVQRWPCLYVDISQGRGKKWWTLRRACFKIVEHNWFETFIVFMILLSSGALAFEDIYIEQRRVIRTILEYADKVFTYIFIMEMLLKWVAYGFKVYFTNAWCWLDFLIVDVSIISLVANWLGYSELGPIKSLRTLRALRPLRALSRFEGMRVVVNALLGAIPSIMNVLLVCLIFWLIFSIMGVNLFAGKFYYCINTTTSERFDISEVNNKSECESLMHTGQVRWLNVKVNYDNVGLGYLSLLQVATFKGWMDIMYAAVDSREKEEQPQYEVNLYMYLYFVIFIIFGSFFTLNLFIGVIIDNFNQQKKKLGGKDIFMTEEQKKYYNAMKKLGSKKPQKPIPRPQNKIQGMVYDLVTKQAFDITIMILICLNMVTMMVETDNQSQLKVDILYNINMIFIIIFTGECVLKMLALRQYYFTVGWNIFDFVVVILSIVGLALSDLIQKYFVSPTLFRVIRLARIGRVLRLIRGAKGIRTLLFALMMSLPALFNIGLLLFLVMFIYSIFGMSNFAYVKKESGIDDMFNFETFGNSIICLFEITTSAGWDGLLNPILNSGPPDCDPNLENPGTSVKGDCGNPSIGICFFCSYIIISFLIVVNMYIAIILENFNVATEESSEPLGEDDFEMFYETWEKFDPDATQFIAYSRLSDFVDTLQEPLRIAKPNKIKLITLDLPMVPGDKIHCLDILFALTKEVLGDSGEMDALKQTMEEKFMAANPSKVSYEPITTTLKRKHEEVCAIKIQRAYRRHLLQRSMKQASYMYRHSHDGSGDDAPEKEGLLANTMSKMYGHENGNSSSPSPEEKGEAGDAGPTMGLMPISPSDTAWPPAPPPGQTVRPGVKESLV

On to `C#CC[C@@H]1NC(=O)[C@@H]2CSSC[C@H](NC(=O)[C@@H](N)Cc3ccc(O)cc3)C(=O)N[C@@H](CCC(N)=O)C(=O)N[C@@H](CCCCN)C(=O)N[C@@H](Cc3c[nH]c4ccccc34)C(=O)N[C@@H](CCCC)C(=O)N[C@@H](Cc3c[nH]c4ccccc34)C(=O)N[C@@H]([C@@H](C)O)C(=O)N[C@H]3CSSC[C@H](NC(=O)[C@H](CCC(=O)O)NC(=O)[C@H](CC(C)C)NC(=O)CNC1=O)C(=O)N[C@@H](CCCCN)C(=O)N[C@@H](CC(C)C)C(=O)N[C@@H](Cc1c[nH]c4ccccc14)C(=O)N[C@H](C(=O)N[C@@H](CCCNC(=N)N)C(=O)N[C@@H](CCCCN)C(=O)N[C@@H](Cc1ccc(O)cc1)C(=O)N[C@H](C(N)=O)[C@@H](C)CC)CSSC[C@H](NC(=O)[C@H](C)NC(=O)[C@H](CCCNC(=N)N)NC(=O)[C@H](CCCCN)NC(=O)[C@H](CO)NC(=O)[C@H](CC(=O)O)NC3=O)C(=O)N2` [compound 317], for which the Nav1.4/Nav1.7 in experiment [1] worked out at 161. Moreover, the Nav1.5/Nav1.7 in experiment [2] came to 927.
`C#CC[C@H](N)C(=O)N[C@H]1CSSC[C@@H]2NC(=O)[C@@H]3CSSC[C@@H](C(=O)N[C@@H](CCCNC(=N)N)C(=O)N[C@@H](CCCCN)C(=O)N[C@@H](CCC(=O)O)C(=O)N[C@H](C(N)=O)[C@@H](C)CC)NC(=O)[C@H](Cc4c[nH]c5ccccc45)NC(=O)[C@H](CC(C)C)NC(=O)[C@H](CCCCN)NC(=O)[C@H](CSSC[C@H](NC(=O)[C@H]([C@@H](C)O)NC(=O)[C@H](Cc4c[nH]c5ccccc45)NC(=O)[C@H](CCCC)NC(=O)[C@H](Cc4c[nH]c5ccccc45)NC(=O)[C@H](CCCCN)NC(=O)[C@H](CCC(N)=O)NC1=O)C(=O)N[C@@H](CC(=O)O)C(=O)N[C@@H](CO)C(=O)N[C@@H](CCCCN)C(=O)N[C@@H](CCCNC(=N)N)C(=O)N[C@@H](C)C(=O)N3)NC(=O)[C@H](CCCNC(=N)N)NC(=O)[C@H](CC(C)C)NC(=O)CNC(=O)[C@H](CCC(=O)O)NC2=O` [compound 329]: the Nav1.4/Nav1.7 in experiment [1] was 555. In addition, the Nav1.5/Nav1.7 in experiment [2] came to 17167.
With `C#CC[C@@H]1NC(=O)[C@H](CC(=O)O)NC(=O)[C@@H]2CSSC[C@@H]3NC(=O)[C@H](CCCNC(=N)N)NC(=O)[C@H](CC(C)C)NC(=O)CNC(=O)[C@H](CCC(=O)O)NC(=O)[C@H](CSSC[C@H](NC(=O)[C@@H](N)Cc4ccc(O)cc4)C(=O)N[C@@H](CCC(N)=O)C(=O)N[C@@H](CCCCN)C(=O)N[C@@H](Cc4c[nH]c5ccccc45)C(=O)N[C@@H](CCCC)C(=O)N[C@@H](Cc4c[nH]c5ccccc45)C(=O)N[C@@H]([C@@H](C)O)C(=O)N2)NC(=O)[C@H](CSSC[C@@H](C(=O)N[C@@H](CCCNC(=N)N)C(=O)N[C@@H](CCCCN)C(=O)N[C@@H](CCC(=O)O)C(=O)N[C@H](C(N)=O)[C@@H](C)CC)NC(=O)[C@H](Cc2c[nH]c4ccccc24)NC(=O)[C@H](CC(C)C)NC(=O)[C@H](CCCCN)NC3=O)NC(=O)[C@H](C)NC(=O)[C@H](CCCNC(=N)N)NC(=O)[C@H](CCCCN)NC1=O` [compound 330], in experiment [1], the Nav1.4/Nav1.7 worked out at 291. Besides, in experiment [2], the Nav1.5/Nav1.7 is given as 7841.
`C#CC[C@@H]1NC(=O)[C@H](CCCNC(=N)N)NC(=O)[C@H](CCCCN)NC(=O)[C@H](CO)NC(=O)[C@H](CC(=O)O)NC(=O)[C@@H]2CSSC[C@@H]3NC(=O)[C@H](CCCNC(=N)N)NC(=O)[C@H](CC(C)C)NC(=O)CNC(=O)[C@H](CCC(=O)O)NC(=O)[C@H](CSSC[C@H](NC(=O)[C@@H](N)Cc4ccc(O)cc4)C(=O)N[C@@H](CCC(N)=O)C(=O)N[C@@H](CCCCN)C(=O)N[C@@H](Cc4c[nH]c5ccccc45)C(=O)N[C@@H](CCCC)C(=O)N[C@@H](Cc4c[nH]c5ccccc45)C(=O)N[C@@H]([C@@H](C)O)C(=O)N2)NC(=O)[C@H](CSSC[C@@H](C(=O)N[C@@H](CCCNC(=N)N)C(=O)N[C@@H](CCCCN)C(=O)N[C@@H](CCC(=O)O)C(=O)N[C@H](C(N)=O)[C@@H](C)CC)NC(=O)[C@H](Cc2c[nH]c4ccccc24)NC(=O)[C@H](CC(C)C)NC(=O)[C@H](CCCCN)NC3=O)NC1=O` [compound 331]: the Nav1.4/Nav1.7 in experiment [1] came out at 213. In addition, the Nav1.5/Nav1.7 in experiment [2] was 7119.
With `C#CC[C@@H]1NC(=O)[C@@H]2CSSC[C@H](NC(=O)[C@@H](N)Cc3ccc(O)cc3)C(=O)N[C@@H](CCC(N)=O)C(=O)N[C@@H](CCCCN)C(=O)N[C@@H](Cc3c[nH]c4ccccc34)C(=O)N[C@@H](CCCC)C(=O)N[C@@H](Cc3c[nH]c4ccccc34)C(=O)N[C@@H]([C@@H](C)O)C(=O)N[C@H]3CSSC[C@H](NC(=O)[C@H](CCCNC(=N)N)NC(=O)[C@H](CC(C)C)NC(=O)CNC1=O)C(=O)N[C@@H](CCCCN)C(=O)N[C@@H](CC(C)C)C(=O)N[C@@H](Cc1c[nH]c4ccccc14)C(=O)N[C@H](C(=O)N[C@@H](CCCNC(=N)N)C(=O)N[C@@H](CCCCN)C(=O)N[C@@H](CCC(=O)O)C(=O)N[C@H](C(N)=O)[C@@H](C)CC)CSSC[C@H](NC(=O)[C@H](C)NC(=O)[C@H](CCCNC(=N)N)NC(=O)[C@H](CCCCN)NC(=O)[C@H](CO)NC(=O)[C@H](CC(=O)O)NC3=O)C(=O)N2` [compound 332], the Nav1.4/Nav1.7 in experiment [1] was found to be 34. For the same compound, the Nav1.5/Nav1.7 in experiment [2] was found to be 849.
For the compound `C#CC[C@H](N)C(=O)N[C@H]1CSSC[C@@H]2NC(=O)[C@@H]3CSSC[C@@H](C(=O)N[C@@H](CCCNC(=N)N)C(=O)N[C@@H](CCCCN)C(=O)N[C@H](C(=O)N[C@H](C(N)=O)[C@@H](C)CC)[C@@H](C)CC)NC(=O)[C@H](Cc4c[nH]c5ccccc45)NC(=O)[C@H](CC(C)C)NC(=O)[C@H](CCCCN)NC(=O)[C@H](CSSC[C@H](NC(=O)[C@H]([C@@H](C)O)NC(=O)[C@H](Cc4c[nH]c5ccccc45)NC(=O)[C@H](CCCC)NC(=O)[C@H](Cc4c[nH]c5ccccc45)NC(=O)[C@H](CCCCN)NC(=O)[C@H](CCC(N)=O)NC1=O)C(=O)N[C@@H](CC(=O)O)C(=O)N[C@@H](CO)C(=O)N[C@@H](CCCCN)C(=O)N[C@@H](CCCNC(=N)N)C(=O)N[C@@H](C)C(=O)N3)NC(=O)[C@H](CCC(=O)O)NC(=O)[C@H](CC(C)C)NC(=O)CNC(=O)[C@H](CCC(=O)O)NC2=O` [compound 343], the Nav1.4/Nav1.7 in experiment [1] worked out at 300. Moreover, the Nav1.5/Nav1.7 in experiment [2] stood at 1011.
Turning to `C#CC[C@@H]1NC(=O)[C@H](CC(=O)O)NC(=O)[C@@H]2CSSC[C@@H]3NC(=O)[C@H](CCC(=O)O)NC(=O)[C@H](CC(C)C)NC(=O)CNC(=O)[C@H](CCC(=O)O)NC(=O)[C@H](CSSC[C@H](NC(=O)[C@@H](N)Cc4ccc(O)cc4)C(=O)N[C@@H](CCC(N)=O)C(=O)N[C@@H](CCCCN)C(=O)N[C@@H](Cc4c[nH]c5ccccc45)C(=O)N[C@@H](CCCC)C(=O)N[C@@H](Cc4c[nH]c5ccccc45)C(=O)N[C@@H]([C@@H](C)O)C(=O)N2)NC(=O)[C@H](CSSC[C@@H](C(=O)N[C@@H](CCCNC(=N)N)C(=O)N[C@@H](CCCCN)C(=O)N[C@H](C(=O)N[C@H](C(N)=O)[C@@H](C)CC)[C@@H](C)CC)NC(=O)[C@H](Cc2c[nH]c4ccccc24)NC(=O)[C@H](CC(C)C)NC(=O)[C@H](CCCCN)NC3=O)NC(=O)[C@H](C)NC(=O)[C@H](CCCNC(=N)N)NC(=O)[C@H](CCCCN)NC1=O` [compound 344], the Nav1.4/Nav1.7 in experiment [1] worked out at 230. The Nav1.5/Nav1.7 in experiment [2] stood at 193.
In the case of `C#CC[C@@H]1NC(=O)[C@H](CCCNC(=N)N)NC(=O)[C@H](CCCCN)NC(=O)[C@H](CO)NC(=O)[C@H](CC(=O)O)NC(=O)[C@@H]2CSSC[C@@H]3NC(=O)[C@H](CCC(=O)O)NC(=O)[C@H](CC(C)C)NC(=O)CNC(=O)[C@H](CCC(=O)O)NC(=O)[C@H](CSSC[C@H](NC(=O)[C@@H](N)Cc4ccc(O)cc4)C(=O)N[C@@H](CCC(N)=O)C(=O)N[C@@H](CCCCN)C(=O)N[C@@H](Cc4c[nH]c5ccccc45)C(=O)N[C@@H](CCCC)C(=O)N[C@@H](Cc4c[nH]c5ccccc45)C(=O)N[C@@H]([C@@H](C)O)C(=O)N2)NC(=O)[C@H](CSSC[C@@H](C(=O)N[C@@H](CCCNC(=N)N)C(=O)N[C@@H](CCCCN)C(=O)N[C@H](C(=O)N[C@H](C(N)=O)[C@@H](C)CC)[C@@H](C)CC)NC(=O)[C@H](Cc2c[nH]c4ccccc24)NC(=O)[C@H](CC(C)C)NC(=O)[C@H](CCCCN)NC3=O)NC1=O` [compound 345], the Nav1.4/Nav1.7 in experiment [1] worked out at 232. In addition, in experiment [2], the Nav1.5/Nav1.7 is listed as 638.
Take `C#CC[C@@H]1NC(=O)[C@@H]2CSSC[C@H](NC(=O)[C@@H](N)Cc3ccc(O)cc3)C(=O)N[C@@H](CCC(N)=O)C(=O)N[C@@H](CCCCN)C(=O)N[C@@H](Cc3c[nH]c4ccccc34)C(=O)N[C@@H](CCCC)C(=O)N[C@@H](Cc3c[nH]c4ccccc34)C(=O)N[C@@H]([C@@H](C)O)C(=O)N[C@H]3CSSC[C@H](NC(=O)[C@H](CCC(=O)O)NC(=O)[C@H](CC(C)C)NC(=O)CNC1=O)C(=O)N[C@@H](CCCCN)C(=O)N[C@@H](CC(C)C)C(=O)N[C@@H](Cc1c[nH]c4ccccc14)C(=O)N[C@H](C(=O)N[C@@H](CCCNC(=N)N)C(=O)N[C@@H](CCCCN)C(=O)N[C@H](C(=O)N[C@H](C(N)=O)[C@@H](C)CC)[C@@H](C)CC)CSSC[C@H](NC(=O)[C@H](C)NC(=O)[C@H](CCCNC(=N)N)NC(=O)[C@H](CCCCN)NC(=O)[C@H](CO)NC(=O)[C@H](CC(=O)O)NC3=O)C(=O)N2` [compound 346]: in experiment [1], the Nav1.4/Nav1.7 is 29. Moreover, the Nav1.5/Nav1.7 in experiment [2] is 102.
For `C#CC[C@H](N)C(=O)NCCOCCOCCOCCOCCC(=O)NCCCC[C@@H]1NC(=O)[C@@H]2CSSC[C@H](NC(=O)[C@H](Cc3ccc(O)cc3)NC(=O)[C@@H](N)CC#N)C(=O)N[C@@H](CCC(N)=O)C(=O)N[C@@H](CCCCN)C(=O)N[C@@H](Cc3c[nH]c4ccccc34)C(=O)N[C@@H](CCCC)C(=O)N[C@@H](Cc3c[nH]c4ccccc34)C(=O)N[C@@H]([C@@H](C)O)C(=O)N[C@H]3CSSC[C@H](NC(=O)[C@H](CCCNC(=N)N)NC(=O)[C@H](CC(C)C)NC(=O)CNC1=O)C(=O)N[C@@H](CCCCN)C(=O)N[C@@H](CC(C)C)C(=O)N[C@@H](Cc1c[nH]c4ccccc14)C(=O)N[C@H](C(=O)N[C@@H](CCCNC(=N)N)C(=O)N[C@@H](CCCCN)C(=O)N[C@H](C(=O)N[C@H](C(N)=O)[C@@H](C)CC)[C@@H](C)CC)CSSC[C@H](NC(=O)[C@H](C)NC(=O)[C@H](CCCNC(=N)N)NC(=O)[C@H](CCCCN)NC(=O)[C@H](CO)NC(=O)[C@H](CC(=O)O)NC3=O)C(=O)N2` [compound 385], in experiment [1], the Nav1.4/Nav1.7 is given as 0. The Nav1.5/Nav1.7 in experiment [2] was determined as 0.
